Data: ChEMBL document CHEMBL1201862, “PubChem BioAssay data set” (2004)
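Dose response: 5 concentrations. Exposure: 48 h. Format: 96-well plates. Endpoint: linear interpolation; highest concentration if not reached. Abbreviation: GI50, concentration required for 50% inhibition of growth.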 The source made the active and inactive calls. Rule as the data show it: active = GI50 up to about 1.1 µM and inactive = higher.

Experiments:
Assay in all cases: inhibition of tumour cell growth, NCI panel, 48 h
[1] = test system: SK-MEL-5
[2] = test system: M19-MEL
[3] = test system: CAKI-1
[4] = test system: M14
[5] = test system: SR
[6] = test system: DU-145
[7] = test system: NCI/ADR-RES
[8] = test system: HOP-18
[9] = test system: MCF7
[10] = test system: HL-60
[11] = test system: RXF 393
[12] = test system: K562
[13] = test system: A549
[14] = test system: HT-29
[15] = test system: Malme-3M
[16] = test system: LOX IMVI
[17] = test system: NCI-H23
[18] = test system: HCC 2998
[19] = test system: MDA-MB-435
[20] = test system: A498
[21] = test system: DMS-273
[22] = test system: HCT-116
[23] = test system: CCRF-CEM
[24] = test system: SK-MEL-2
[25] = test system: MDA-MB-231
[26] = test system: NCI-H226
[27] = test system: COLO 205
[28] = test system: OVCAR-8
[29] = test system: DLD-1
[30] = test system: Hs-578T
[31] = test system: OVCAR-3
[32] = test system: UACC-62
[33] = test system: T47D
[34] = test system: HOP-92
[35] = test system: SNB-75
[36] = test system: BT-549
[37] = test system: UO-31
[38] = test system: SK-OV-3
[39] = test system: LXFL 529
[40] = test system: SN12C
[41] = test system: U-251
[42] = test system: UACC-257
[43] = test system: IGROV-1
[44] = test system: SW-620
[45] = test system: 786-0
[46] = test system: NCI-H522
[47] = test system: SF-268
[48] = test system: ACHN
[49] = test system: SF-295
[50] = test system: SK-MEL-28
[51] = test system: KM12
[52] = test system: SNB-19
[53] = test system: RPMI-8226
[54] = test system: PC-3
[55] = test system: TK-10
[56] = test system: HCT-15
[57] = test system: SF-539
[58] = test system: DMS-114
[59] = test system: OVCAR-4
[60] = test system: NCI-H460
[61] = test system: MOLT-4
[62] = test system: KM-20L2
[63] = test system: HOP-62
[64] = test system: EKVX
[65] = test system: MDA-N
[66] = test system: XF498
[67] = test system: SNB-78
[68] = test system: OVCAR-5

**Q.** What does the source list for CCOc1ccc(NC2=CC(=O)C(=O)c3ccccc32)cc1?
**A.** GI50 [1]: 1.59 µM (inactive); GI50 [2]: 0.647 µM (active); GI50 [3]: 8.05 µM (inactive); GI50 [4]: 1.75 µM (inactive); GI50 [5]: 3.4 µM (inactive); GI50 [6]: 2.38 µM (inactive); GI50 [7]: 2.83 µM (inactive); GI50 [8]: 2.6 µM (inactive); GI50 [9]: 2.15 µM (inactive); GI50 [10]: 0.459 µM (active); GI50 [11]: 5.87 µM (inactive); GI50 [12]: 5.07 µM (inactive); GI50 [13]: 2.74 µM (inactive); GI50 [14]: 5.35 µM (inactive); GI50 [15]: 2.08 µM (inactive); GI50 [16]: 1.3 µM (inactive); GI50 [17]: 1.91 µM (inactive); GI50 [18]: 13.1 µM (inactive); GI50 [19]: 1.8 µM (inactive); GI50 [20]: 3.61 µM (inactive); GI50 [21]: 2.88 µM (inactive); GI50 [22]: 3.35 µM (inactive); GI50 [23]: 9.48 µM (inactive); GI50 [24]: 4.31 µM (inactive); GI50 [25]: 12.1 µM (inactive); GI50 [26]: 4.86 µM (inactive); GI50 [27]: 3.64 µM (inactive); GI50 [28]: 4.33 µM (inactive); GI50 [29]: 4.43 µM (inactive); GI50 [30]: 2.37 µM (inactive); GI50 [31]: 2.86 µM (inactive); GI50 [32]: 1.72 µM (inactive); GI50 [33]: 8.79 µM (inactive); GI50 [34]: 9.48 µM (inactive); GI50 [35]: 2.35 µM (inactive); GI50 [36]: 1.66 µM (inactive); GI50 [37]: 4.45 µM (inactive); GI50 [38]: 11.3 µM (inactive); GI50 [39]: 3.47 µM (inactive); GI50 [40]: 1.82 µM (inactive); GI50 [41]: 3.85 µM (inactive); GI50 [42]: 1.63 µM (inactive); GI50 [43]: 4.29 µM (inactive); GI50 [44]: 1.82 µM (inactive); GI50 [45]: 3.78 µM (inactive); GI50 [46]: 1.81 µM (inactive); GI50 [47]: 6.25 µM (inactive); GI50 [48]: 2.28 µM (inactive); GI50 [49]: 2.61 µM (inactive); GI50 [50]: 3.27 µM (inactive); GI50 [51]: 3.77 µM (inactive); GI50 [52]: 2.94 µM (inactive); GI50 [53]: 4.47 µM (inactive); GI50 [54]: 3.12 µM (inactive); GI50 [55]: 8.32 µM (inactive); GI50 [56]: 2.34 µM; GI50 [57]: 1.97 µM (inactive); GI50 [58]: 1.88 µM (inactive); GI50 [59]: 3.48 µM (inactive); GI50 [60]: 2.47 µM (inactive); GI50 [61]: 8.83 µM (inactive); GI50 [62]: 18.7 µM (inactive); GI50 [63]: 3.88 µM (inactive); GI50 [64]: 16.4 µM (inactive); GI50 [65]: 2.05 µM (inactive); GI50 [66]: 2.25 µM (inactive); GI50 [67]: 15.5 µM (inactive); GI50 [68]: 3.77 µM (inactive)

**Q.** With CCCCN1C=CN2c3nc4cc(C)c(C)cc4n3C(C(=O)OC)=C(C(=O)OC)C12 (stereo not given) as the molecule, how does the GI50 [1] read?
**A.** Its GI50 is > 100 µM (inactive).

**Q.** What about the GI50 [2] of the same molecule?
**A.** The GI50 was > 100 µM (inactive).

**Q.** What about the GI50 [3] of the same molecule?
**A.** Its GI50 is > 100 µM (inactive).

**Q.** And the GI50 [4]?
**A.** Its GI50 is > 100 µM (inactive).

**Q.** What about the GI50 [5] of the same molecule?
**A.** The GI50 was > 100 µM (inactive).

**Q.** What about the GI50 [8] of the same molecule?
**A.** Its GI50 is > 100 µM (inactive).

**Q.** And the GI50 [10]?
**A.** The GI50 was > 100 µM (inactive).

**Q.** What about the GI50 [11] of the same molecule?
**A.** The GI50 was > 100 µM (inactive).

**Q.** What about the GI50 [12] of the same molecule?
**A.** Its GI50 is > 100 µM (inactive).

**Q.** And the GI50 [13]?
**A.** Its GI50 is > 100 µM (inactive).

**Q.** What about the GI50 [14] of the same molecule?
**A.** Its GI50 is > 100 µM (inactive).

**Q.** And the GI50 [15]?
**A.** The GI50 was > 100 µM (inactive).

**Q.** And the GI50 [16]?
**A.** Its GI50 is > 100 µM (inactive).

**Q.** And the GI50 [17]?
**A.** Its GI50 is > 100 µM (inactive).

**Q.** And the GI50 [18]?
**A.** Its GI50 is > 100 µM (inactive).

**Q.** And the GI50 [21]?
**A.** Its GI50 is > 100 µM (inactive).

**Q.** What about the GI50 [22] of the same molecule?
**A.** The GI50 was > 100 µM (inactive).

**Q.** And the GI50 [23]?
**A.** The GI50 was > 100 µM (inactive).

**Q.** What about the GI50 [24] of the same molecule?
**A.** The GI50 was > 100 µM (inactive).

**Q.** What about the GI50 [28] of the same molecule?
**A.** The GI50 was > 100 µM (inactive).

**Q.** What about the GI50 [29] of the same molecule?
**A.** Its GI50 is > 100 µM (inactive).

**Q.** And the GI50 [31]?
**A.** Its GI50 is > 100 µM (inactive).

**Q.** What about the GI50 [32] of the same molecule?
**A.** Its GI50 is > 100 µM (inactive).

**Q.** What about the GI50 [34] of the same molecule?
**A.** Its GI50 is > 100 µM (inactive).

**Q.** And the GI50 [35]?
**A.** Its GI50 is > 100 µM (inactive).

**Q.** And the GI50 [37]?
**A.** The GI50 was > 100 µM (inactive).

**Q.** What about the GI50 [38] of the same molecule?
**A.** Its GI50 is > 100 µM (inactive).

**Q.** And the GI50 [39]?
**A.** Its GI50 is > 100 µM (inactive).

**Q.** What about the GI50 [40] of the same molecule?
**A.** Its GI50 is > 100 µM (inactive).

**Q.** And the GI50 [41]?
**A.** Its GI50 is > 100 µM (inactive).

**Q.** What about the GI50 [42] of the same molecule?
**A.** Its GI50 is > 100 µM (inactive).

**Q.** And the GI50 [43]?
**A.** Its GI50 is > 100 µM (inactive).

**Q.** What about the GI50 [44] of the same molecule?
**A.** The GI50 was > 100 µM (inactive).

**Q.** And the GI50 [46]?
**A.** Its GI50 is > 100 µM (inactive).

**Q.** And the GI50 [47]?
**A.** Its GI50 is > 100 µM (inactive).

**Q.** And the GI50 [48]?
**A.** The GI50 was > 100 µM (inactive).

**Q.** And the GI50 [49]?
**A.** The GI50 was > 100 µM (inactive).

**Q.** And the GI50 [52]?
**A.** The GI50 was > 100 µM (inactive).

**Q.** And the GI50 [53]?
**A.** The GI50 was > 100 µM (inactive).

**Q.** And the GI50 [55]?
**A.** Its GI50 is > 100 µM (inactive).

**Q.** What about the GI50 [56] of the same molecule?
**A.** The GI50 was over 100 µM.

**Q.** And the GI50 [57]?
**A.** The GI50 was > 100 µM (inactive).

**Q.** And the GI50 [58]?
**A.** The GI50 was > 100 µM (inactive).

**Q.** What about the GI50 [59] of the same molecule?
**A.** The GI50 was > 100 µM (inactive).

**Q.** And the GI50 [60]?
**A.** Its GI50 is > 100 µM (inactive).

**Q.** And the GI50 [61]?
**A.** Its GI50 is > 100 µM (inactive).

**Q.** What about the GI50 [62] of the same molecule?
**A.** The GI50 was > 100 µM (inactive).

**Q.** What about the GI50 [63] of the same molecule?
**A.** The GI50 was > 100 µM (inactive).

**Q.** And the GI50 [64]?
**A.** Its GI50 is > 100 µM (inactive).

**Q.** And the GI50 [66]?
**A.** Its GI50 is > 100 µM (inactive).

**Q.** What about the GI50 [67] of the same molecule?
**A.** The GI50 was > 100 µM (inactive).

**Q.** What about the GI50 [68] of the same molecule?
**A.** The GI50 was > 100 µM (inactive).
